The values that follow come from patent publication US9701680B2, “Pyrimidine and pyridine compounds and their usage” (HUTCHISON MEDIPHARMA LIMITED, priority 2013, dated 2017).

Read-outs that look alike come from different tables or passages of the source.

The target in one experiment is Recombinant human FGFR1 (Homo sapiens, UniProt P11362). The experiment can be described thus: Transcreener Kinase Assay of FGFR1. It counts as biochemical. The gist of the method:
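Recombinant human FGFR1 was reacted with Poly E4Y substrate and ATP for 45 min at 28 °C, with compounds at 1 to 0.0005 µM in 1% DMSO final. Inhibition is relative to the DMSO control, with IC50 from a curve fit.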

The next experiment addresses Recombinant human FGFR2 (Homo sapiens, UniProt P21802). The experiment can be described thus: Transcreener Kinase Assay of FGFR2. It counts as biochemical.
A further experiment deals with FGFR3 kinase (Homo sapiens, UniProt P22607). Kind of experiment: Z-Lyte Kinase Assay of FGFR3. The class given is biochemical. The gist of the method: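 Z-LYTE FRET assay, kinase 0.7 μg/ml with Tyr 4 peptide 4 μM (P/K solution), ATP diluted to 300 uM in 1.33× buffer; compound final 1 to 0.00046 μM, 2% DMSO.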
Chain of FGFR3 kinase (P22607 23-806): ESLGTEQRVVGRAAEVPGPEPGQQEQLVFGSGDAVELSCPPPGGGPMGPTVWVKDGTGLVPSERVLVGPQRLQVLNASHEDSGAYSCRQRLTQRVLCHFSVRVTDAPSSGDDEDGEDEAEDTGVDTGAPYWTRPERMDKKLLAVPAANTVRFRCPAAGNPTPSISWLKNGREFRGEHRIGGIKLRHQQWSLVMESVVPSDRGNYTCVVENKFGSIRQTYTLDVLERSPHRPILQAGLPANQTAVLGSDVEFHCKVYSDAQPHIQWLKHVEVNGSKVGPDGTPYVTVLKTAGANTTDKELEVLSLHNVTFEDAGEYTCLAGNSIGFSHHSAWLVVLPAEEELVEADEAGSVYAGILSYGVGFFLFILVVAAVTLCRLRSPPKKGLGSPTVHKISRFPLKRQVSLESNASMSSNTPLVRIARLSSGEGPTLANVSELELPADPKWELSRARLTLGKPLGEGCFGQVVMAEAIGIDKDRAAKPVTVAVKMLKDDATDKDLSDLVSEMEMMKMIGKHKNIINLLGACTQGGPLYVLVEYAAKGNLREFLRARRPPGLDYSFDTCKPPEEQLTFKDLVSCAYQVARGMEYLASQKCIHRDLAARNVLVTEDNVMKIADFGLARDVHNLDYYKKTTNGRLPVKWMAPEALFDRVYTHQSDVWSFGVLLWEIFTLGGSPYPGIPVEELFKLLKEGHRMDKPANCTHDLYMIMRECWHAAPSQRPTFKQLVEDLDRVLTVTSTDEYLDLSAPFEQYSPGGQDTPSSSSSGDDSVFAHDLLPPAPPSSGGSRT
For another experiment, the system named is KG-1. Kind of experiment: Cellular Proliferation Assay (Cell Counting Kit-8), KG-1. It counts as cell-based. Particulars: Homo sapiens; KG-1 cells, 72 hours; read-out: KG1 IC50. An outline of the steps: (§1)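 Seeding per well: KG-1 30000, SNU-16 5000, RT-112 1000 cells. After 24 h an 8-point series (working dilutions 10 to 0.004 μM in 5% DMSO) was added for 72 h at 37 °C, 5% CO2. CCK-8 OD450 after 1 h, corrected for media background and normalised to untreated cells, gave IC50.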

The next experiment has as its system SNU-16. Kind of experiment: Cellular Proliferation Assay (Cell Counting Kit-8), SNU-16. The class given is cell-based. The note with it: Homo sapiens; SNU-16 cells, 72 hours. The gist of the method:
as §1
(In general: Formazan colour is commonly taken as a measure of viable cells.)

In the next experiment the test system is RT-112. Kind of experiment: Cellular Proliferation Assay (Cell Counting Kit-8), RT-112. It counts as cell-based. Particulars: Homo sapiens; RT-112 cells, 72 hours. The gist of the method:
as §1

Chain of Recombinant human FGFR2 (P21802 22-821): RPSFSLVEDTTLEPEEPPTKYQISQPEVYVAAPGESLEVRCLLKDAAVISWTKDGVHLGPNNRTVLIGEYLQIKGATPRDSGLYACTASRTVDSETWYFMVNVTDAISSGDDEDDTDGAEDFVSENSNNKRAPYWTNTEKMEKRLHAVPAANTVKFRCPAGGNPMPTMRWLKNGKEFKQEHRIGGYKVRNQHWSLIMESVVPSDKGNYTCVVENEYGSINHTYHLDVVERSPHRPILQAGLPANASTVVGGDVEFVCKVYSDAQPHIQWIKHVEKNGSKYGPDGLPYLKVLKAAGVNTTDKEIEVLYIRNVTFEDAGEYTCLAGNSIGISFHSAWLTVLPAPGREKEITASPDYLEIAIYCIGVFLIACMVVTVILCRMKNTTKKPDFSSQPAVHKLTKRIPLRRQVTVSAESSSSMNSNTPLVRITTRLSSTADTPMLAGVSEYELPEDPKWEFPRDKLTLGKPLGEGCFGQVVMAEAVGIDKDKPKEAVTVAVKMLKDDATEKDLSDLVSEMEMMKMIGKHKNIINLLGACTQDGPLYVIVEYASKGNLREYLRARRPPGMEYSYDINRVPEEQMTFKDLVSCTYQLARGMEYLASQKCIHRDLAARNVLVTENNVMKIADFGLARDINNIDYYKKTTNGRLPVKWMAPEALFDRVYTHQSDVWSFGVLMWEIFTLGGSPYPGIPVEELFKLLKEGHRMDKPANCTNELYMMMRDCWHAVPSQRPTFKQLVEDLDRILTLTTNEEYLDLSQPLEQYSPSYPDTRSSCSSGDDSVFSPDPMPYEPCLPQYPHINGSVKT
Chain of Recombinant human FGFR1 (P11362 22-822): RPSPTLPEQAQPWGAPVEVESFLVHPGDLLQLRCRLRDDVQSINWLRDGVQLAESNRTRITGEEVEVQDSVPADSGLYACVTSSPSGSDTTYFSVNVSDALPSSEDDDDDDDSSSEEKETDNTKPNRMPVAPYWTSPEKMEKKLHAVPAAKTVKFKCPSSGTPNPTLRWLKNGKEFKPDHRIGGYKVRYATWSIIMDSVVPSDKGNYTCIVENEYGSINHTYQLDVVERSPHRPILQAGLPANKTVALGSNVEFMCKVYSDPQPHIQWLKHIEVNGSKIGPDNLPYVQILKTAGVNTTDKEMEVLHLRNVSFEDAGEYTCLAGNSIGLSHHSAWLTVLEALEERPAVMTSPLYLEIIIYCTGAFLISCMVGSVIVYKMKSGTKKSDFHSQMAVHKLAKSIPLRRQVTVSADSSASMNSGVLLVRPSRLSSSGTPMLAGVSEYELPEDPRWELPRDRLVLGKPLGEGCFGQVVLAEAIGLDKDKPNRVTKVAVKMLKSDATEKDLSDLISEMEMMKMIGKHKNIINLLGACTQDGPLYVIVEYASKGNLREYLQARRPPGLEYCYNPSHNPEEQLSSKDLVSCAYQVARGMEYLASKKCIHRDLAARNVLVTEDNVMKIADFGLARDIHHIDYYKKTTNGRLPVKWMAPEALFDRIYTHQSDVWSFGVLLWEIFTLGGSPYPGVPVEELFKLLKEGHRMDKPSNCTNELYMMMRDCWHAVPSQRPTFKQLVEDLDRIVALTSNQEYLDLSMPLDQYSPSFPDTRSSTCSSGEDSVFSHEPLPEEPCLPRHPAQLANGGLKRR

Take `CNC(=O)c1cc(COc2cnc(Nc3ccc(OC)c(N4CCN(C)CC4)c3)nc2)c(F)c(OC)c1` [Compound 270]: the IC50 on Recombinant human FGFR1 (read-out: FGFR1 (FP) IC50) worked out at 18 nM; on Recombinant human FGFR2 (read-out: FGFR2 (FP) IC50), 9 nM; on FGFR3 kinase, 8 nM; with KG-1 it was 52 nM; in the experiment on SNU-16 it was 10 nM; with RT-112 it was 23 nM.
`CCN1CCN(c2ccc(Nc3ncc(OCc4cc(C(=O)NC)cc(OC)c4Cl)cn3)cn2)CC1` [Compound 272]: the half-inhibitory concentration (IC50) came out at 10 nM at Recombinant human FGFR1 (read-out: FGFR1 (FP) IC50); 9 nM at Recombinant human FGFR2 (read-out: FGFR2 (FP) IC50); 8 nM against FGFR3 kinase; 18 nM in the experiment with KG-1; 15 nM in the experiment with SNU-16; 31 nM with RT-112.
With `CNC(=O)c1cc(OC)c(F)c(COc2cnc(Nc3cccc(N4C[C@@H](C)N[C@@H](C)C4)c3)nc2)c1F` [Compound 275], the half-maximal inhibitory concentration (IC50) is 14 nM on Recombinant human FGFR1 (read-out: FGFR1 (FP) IC50); 9 nM at Recombinant human FGFR2 (read-out: FGFR2 (FP) IC50); 14 nM at FGFR3 kinase; 46 nM in the experiment on KG-1; 18 nM in the experiment on SNU-16; 62 nM in the experiment with RT-112.
In the case of `CNC(=O)c1cc(COc2cnc(Nc3cnc(N4C[C@@H](C)N[C@@H](C)C4)nc3)nc2)c(Cl)c(OC)c1` [Compound 276], the IC50 is 20 nM on Recombinant human FGFR1 (read-out: FGFR1 (FP) IC50); 23 nM at Recombinant human FGFR2 (read-out: FGFR2 (FP) IC50); 21 nM against FGFR3 kinase; 83 nM with KG-1; 21 nM with SNU-16; 140 nM in the experiment with RT-112.
Turning to `CNC(=O)c1cc(COc2cnc(Nc3cnc(N4C[C@@H](C)N[C@@H](C)C4)c(F)c3)nc2)c(F)c(OC)c1` [Compound 277], the IC50 is 20 nM on Recombinant human FGFR1 (read-out: FGFR1 (FP) IC50); 14 nM at Recombinant human FGFR2 (read-out: FGFR2 (FP) IC50); 18 nM against FGFR3 kinase; 57 nM with KG-1; 36 nM with SNU-16; 109 nM in the experiment with RT-112.
With `CNC(=O)c1cc(OC)c(F)c(COc2cnc(Nc3ccc(N4C[C@@H](C)N[C@@H](C)C4)nc3)nc2)c1F` [Compound 278], the IC50 amounted to 23 nM at Recombinant human FGFR1 (FP); 14 nM on Recombinant human FGFR2 (FP); 20 nM against FGFR3 kinase (Z-lyte); 34 nM in the experiment on KG-1; 27 nM with SNU-16; 65 nM with RT-112.
On to `CCN1CCC(c2ccc(Nc3ncc(OCc4cc(C(=O)NC)cc(OC)c4F)cn3)cc2OC)CC1` [Compound 280], for which the IC50 at Recombinant human FGFR1 (FP) turned out to be 27 nM; on Recombinant human FGFR2 (FP), 18 nM; on FGFR3 kinase (Z-lyte), 16 nM; with KG-1, 191 nM; with SNU-16 it was 7 nM; in the experiment with RT-112, 29 nM.
On to `CCN1[C@H](C)CN(c2ccc(Nc3ncc(OCc4cc(C(=O)NC)cc(OC)c4F)cn3)cn2)C[C@@H]1C` [Compound 281], for which the IC50 worked out at 19 nM on Recombinant human FGFR1 (FP); 14 nM at Recombinant human FGFR2 (FP); 19 nM against FGFR3 kinase (Z-lyte); 9 nM in the experiment on KG-1; 14 nM in the experiment on SNU-16; 37 nM in the experiment on RT-112.
As to `CNC(=O)c1cc(COc2cnc(Nc3ccc(N4C[C@@H](C)N[C@@H](C)C4)c(OC)c3)nc2)c(F)c(OC)c1` [Compound 282], the IC50 on Recombinant human FGFR1 (FP) stood at 18 nM; at Recombinant human FGFR2 (FP), 9 nM; on FGFR3 kinase (Z-lyte) it was 7 nM; in the experiment on KG-1, 46 nM; in the experiment with SNU-16, 5 nM; in the experiment with RT-112, 5 nM.
Regarding `CCN1CCN(c2ccc(Nc3ncc(OCc4cc(C(=O)NC)cc(OC)c4F)cn3)cc2OC)CC1` [Compound 283], the 50% inhibitory concentration (IC50) at Recombinant human FGFR1 (FP) is 12 nM; at Recombinant human FGFR2 (FP), 5 nM; at FGFR3 kinase (Z-lyte) it was 4 nM; in the experiment with KG-1, 8 nM; in the experiment with SNU-16, 3 nM; in the experiment with RT-112, 8 nM.
Turning to `CNC(=O)c1cc(COc2cnc(Nc3ccc([C@H]4CCCN(C(C)=O)C4)nc3)nc2)c(Cl)c(OC)c1` [Compound 284], the IC50 was 39 nM at Recombinant human FGFR1 (FP); 24 nM at Recombinant human FGFR2 (FP); 43 nM at FGFR3 kinase (Z-lyte); 71 nM in the experiment on KG-1; 33 nM in the experiment on SNU-16; 72 nM in the experiment on RT-112.
On to `CNC(=O)c1cc(COc2cnc(Nc3ccc(N4C[C@@H](C)N(C)[C@@H](C)C4)cc3)nc2)c(Cl)c(OC)c1` [Compound 286], for which the IC50 on Recombinant human FGFR1 (FP) came out at 7 nM; on Recombinant human FGFR2 (FP) it was 6 nM; against FGFR3 kinase (Z-lyte) it was 9 nM; in the experiment with KG-1, 8 nM; in the experiment with SNU-16 it was 16 nM; in the experiment with RT-112, 43 nM.
Consider `CNC(=O)c1cc(COc2cnc(Nc3cnc(N4C[C@@H](C)N[C@@H](C)C4)c(C)c3)nc2)c(Cl)c(OC)c1` [Compound 287], for which the IC50 at Recombinant human FGFR1 (FP) is 11 nM; at Recombinant human FGFR2 (FP) it was 8 nM; at FGFR3 kinase (Z-lyte), 8 nM; with KG-1, 54 nM; in the experiment with SNU-16, 14 nM; in the experiment on RT-112, 35 nM.
Turning to `CNC(=O)c1cc(COc2cnc(Nc3ccc(N4CCN(C)CC4)c(OC)c3)nc2)c(Cl)c(OC)c1` [Compound 288], the IC50 was determined as 6 nM on Recombinant human FGFR1 (FP); 4 nM on Recombinant human FGFR2 (FP); 4 nM on FGFR3 kinase (Z-lyte); 2 nM in the experiment on KG-1; 2 nM with SNU-16; 3 nM in the experiment with RT-112.
For `CNC(=O)c1cc(OC)c(Cl)c(COc2cnc(Nc3ccc(N4C[C@@H](C)N[C@@H](C)C4)cc3)nc2)c1F` [Compound 290], the IC50 on Recombinant human FGFR1 (FP) is 10 nM; at Recombinant human FGFR2 (FP), 7 nM; against FGFR3 kinase (Z-lyte), 11 nM; with KG-1, 6 nM; in the experiment with SNU-16 it was 11 nM; in the experiment on RT-112, 12 nM.
`CNC(=O)c1cc(OC)c(Cl)c(COc2cnc(Nc3ccc(N4C[C@@H](C)N[C@@H](C)C4)nc3)nc2)c1F` [Compound 291]: the IC50 is 17 nM on Recombinant human FGFR1 (FP); 18 nM on Recombinant human FGFR2 (FP); 17 nM at FGFR3 kinase (Z-lyte); 15 nM with KG-1; 17 nM in the experiment on SNU-16; 27 nM in the experiment with RT-112.
For the compound `CNC(=O)c1cc(COc2cnc(Nc3cnc(N4C[C@@H](C)N[C@@H](C)C4)c(F)c3)nc2)c(Cl)c(OC)c1` [Compound 292], the IC50 on Recombinant human FGFR1 (FP) came to 13 nM; at Recombinant human FGFR2 (FP), 11 nM; on FGFR3 kinase (Z-lyte) it was 14 nM; in the experiment on KG-1, 46 nM; with SNU-16, 17 nM; in the experiment with RT-112, 70 nM.
With `CCN(CC)CCNC(C)c1ccc(Nc2ncc(OCc3cc(C(=O)NC)cc(OC)c3Cl)cn2)cc1` (stereo not drawn) [Compound 295], the IC50 on Recombinant human FGFR1 (FP) was 13 nM; at Recombinant human FGFR2 (FP), 13 nM; against FGFR3 kinase (Z-lyte), 19 nM; in the experiment on KG-1, 40 nM; in the experiment with SNU-16, 104 nM; in the experiment with RT-112 it was 337 nM.
As for `CNC(=O)c1cc(OC)c(Cl)c(COc2cnc(Nc3ccc(N4C[C@@H](C)N[C@@H](C)C4)c(C)c3)nc2)c1F` [Compound 298], the IC50 was determined as 9 nM on Recombinant human FGFR1 (FP); 8 nM on Recombinant human FGFR2 (FP); 13 nM against FGFR3 kinase (Z-lyte); 8 nM in the experiment on KG-1; 14 nM in the experiment with SNU-16; 15 nM in the experiment on RT-112.
With `CNC(=O)c1cc(OC)c(Cl)c(COc2cnc(Nc3ccc(N4C[C@@H](C)N[C@@H](C)C4)c(F)c3)nc2)c1F` [Compound 299], the IC50 stood at 6 nM on Recombinant human FGFR1 (FP); 6 nM at Recombinant human FGFR2 (FP); 8 nM against FGFR3 kinase (Z-lyte); 7 nM in the experiment on KG-1; 11 nM in the experiment with SNU-16; 15 nM in the experiment on RT-112.
For `CNC(=O)c1cc(COc2cnc(Nc3cccc(CCN4CCN(CCOC)CC4)c3)nc2)c(F)c(OC)c1` [Compound 301], the IC50 on Recombinant human FGFR1 (FP) amounted to 9 nM; on Recombinant human FGFR2 (FP), 6 nM; against FGFR3 kinase (Z-lyte) it was 10 nM; in the experiment with KG-1, 24 nM; in the experiment with SNU-16, 11 nM; in the experiment with RT-112 it was 37 nM.
`CNC(=O)c1cc(COc2cnc(Nc3ccc(O[C@@H]4O[C@H](CO)[C@@H](O)[C@H](O)[C@H]4O)cc3)nc2)c(Cl)c(OC)c1` [Compound 303]: the IC50 on Recombinant human FGFR1 (FP) was 11 nM; at Recombinant human FGFR2 (FP) it was 7 nM; at FGFR3 kinase (Z-lyte) it was 7 nM; in the experiment on KG-1, 40 nM; in the experiment with SNU-16, 23 nM; with RT-112, 64 nM.
`CNC(=O)c1cc(C#Cc2cnc(Nc3ccc(N4C[C@@H](C)N[C@@H](C)C4)c(OC)c3)nc2)c(F)c(OC)c1` [Compound 306]: the IC50 on Recombinant human FGFR1 (FP) was found to be 29 nM; on Recombinant human FGFR2 (FP), 12 nM; against FGFR3 kinase (Z-lyte), 26 nM; in the experiment with KG-1 it was 100 nM; with SNU-16 it was 23 nM; in the experiment on RT-112, 16 nM.
Consider `CCN1CCN(c2ccc(Nc3ncc(C#Cc4cc(C(=O)NC)cc(OC)c4F)cn3)cc2OC)CC1` [Compound 307], for which the IC50 at Recombinant human FGFR1 (FP) is 19 nM; at Recombinant human FGFR2 (FP), 17 nM; against FGFR3 kinase (Z-lyte) it was 21 nM; in the experiment on KG-1, 5 nM; in the experiment with SNU-16, 1 nM; in the experiment on RT-112 it was 5 nM.

By IC50 is commonly meant the concentration at which inhibition is half-maximal.
